From article PMC8253220, “Molecular design, synthesis and in vitro biological evaluation of thienopyrimidine–hydroxamic acids as chimeric kinase HDAC inhibitors: a challenging approach to combat cancer” (Journal of Enzyme Inhibition and Medicinal Chemistry, 2021)
Where “and” joins values, the source holds several entries; their conditions need not be identical. Equal values may be shown once.

Legend:
Format in all cases: cell-based, human
[1] = test system: TK-10; assay: NCI one-dose screen; settings: Renal TK-10, 10 µM single dose
Procedure, shortened: (§1)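 At 10 μM, a single concentration, compounds were evaluated for antiproliferative effect in the NCI 60-line screen, with growth expressed relative to untreated control cells.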

[2] = test system: A549/ATCC; assay: NCI one-dose screen; settings: NSCLC A549/ATCC, 10 µM single dose
Procedure, shortened: as §1

[3] = test system: SF-295; assay: NCI one-dose screen; settings: CNS SF-295, 10 µM single dose
Procedure, shortened: as §1

[4] = test system: OVCAR-8; assay: NCI one-dose screen; settings: Ovarian OVCAR-8, 10 µM single dose
Procedure, shortened: as §1

[5] = test system: SN12C; assay: NCI one-dose screen; settings: Renal SN12C, 10 µM single dose
Procedure, shortened: as §1

[6] = test system: PC-3; assay: NCI one-dose screen; settings: Prostate PC-3, 10 µM single dose
Procedure, shortened: (§2)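 Following the standard NCI-60 protocol, compounds were applied once at 10 μM to all 60 cancer lines. Read-out is percent growth versus untreated controls, expressed as inhibition %.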

[7] = test system: RXF 393; assay: NCI one-dose screen; settings: Renal RXF 393, 10 µM single dose
Procedure, shortened: as §1

[8] = test system: MDA-MB-231/ATCC; assay: NCI one-dose screen; settings: Breast MDA-MB-231/ATCC, 10 µM single dose
Procedure, shortened: as §1

[9] = test system: UO-31; assay: NCI one-dose screen; settings: Renal UO-31, 10 µM single dose
Procedure, shortened: (§3)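 Single 10 μM dose, NCI-60 panel; read-out = % growth vs untreated controls → % inhibition.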

[10] = test system: HS 578T; assay: NCI one-dose screen; settings: Breast HS 578T, 10 µM single dose
Procedure, shortened: as §1

[11] = test system: MDA-MB-435; assay: NCI one-dose screen; settings: Melanoma MDA-MB-435, 10 µM single dose
Procedure, shortened: as §1

[12] = test system: EKVX; assay: NCI one-dose screen; settings: NSCLC EKVX, 10 µM single dose
Procedure, shortened: as §3

[13] = test system: HCC-2998; assay: NCI one-dose screen; settings: Colon HCC-2998, 10 µM single dose
Procedure, shortened: as §1

[14] = test system: KM12; assay: NCI one-dose screen; settings: Colon KM12, 10 µM single dose
Procedure, shortened: (§4)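 Screening used the full NCI panel of 60 cancer cell lines with compounds dosed once at 10 μM; the reported value is percent growth inhibition versus untreated controls.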

[15] = test system: UACC-257; assay: NCI one-dose screen; settings: Melanoma UACC-257, 10 µM single dose
Procedure, shortened: as §2

[16] = test system: NCI-H460; assay: NCI one-dose screen; settings: NSCLC NCI-H460, 10 µM single dose
Procedure, shortened: as §1

[17] = test system: SK-MEL-28; assay: NCI one-dose screen; settings: Melanoma SK-MEL-28, 10 µM single dose
Procedure, shortened: as §2

[18] = test system: HOP-92; assay: NCI one-dose screen; settings: NSCLC HOP-92, 10 µM single dose
Procedure, shortened: as §1

[19] = test system: NCI-H322M; assay: NCI one-dose screen; settings: NSCLC NCI-H322M, 10 µM single dose
Procedure, shortened: as §1

[20] = test system: MCF7; assay: NCI one-dose screen; settings: Breast MCF7, 10 µM single dose
Procedure, shortened: as §4

[21] = test system: OVCAR-5; assay: NCI one-dose screen; settings: Ovarian OVCAR-5, 10 µM single dose
Procedure, shortened: as §1

[22] = test system: OVCAR-4; assay: NCI one-dose screen; settings: Ovarian OVCAR-4, 10 µM single dose
Procedure, shortened: as §1

[23] = test system: BT-549; assay: NCI one-dose screen; settings: Breast BT-549, 10 µM single dose
Procedure, shortened: as §1

[24] = test system: SF-539; assay: NCI one-dose screen; settings: CNS SF-539, 10 µM single dose
Procedure, shortened: as §4

[25] = test system: CAKI-1; assay: NCI one-dose screen; settings: Renal CAKI-1, 10 µM single dose
Procedure, shortened: as §1

[26] = test system: U251; assay: NCI one-dose screen; settings: CNS U251, 10 µM single dose
Procedure, shortened: as §3

[27] = test system: HL-60(TB); assay: NCI one-dose screen; settings: Leukemia HL-60(TB), 10 µM single dose
Procedure, shortened: as §1

[28] = test system: HCT-15; assay: NCI one-dose screen; settings: Colon HCT-15, 10 µM single dose
Procedure, shortened: as §1

[29] = test system: RPMI-8226; assay: NCI one-dose screen; settings: Leukemia RPMI-8226, 10 µM single dose
Procedure, shortened: as §1

[30] = test system: SK-MEL-5; assay: NCI one-dose screen; settings: Melanoma SK-MEL-5, 10 µM single dose
Procedure, shortened: as §1

[31] = test system: OVCAR-3; assay: NCI one-dose screen; settings: Ovarian OVCAR-3, 10 µM single dose
Procedure, shortened: as §1

[32] = test system: SK-OV-3; assay: NCI one-dose screen; settings: Ovarian SK-OV-3, 10 µM single dose
Procedure, shortened: as §1

[33] = test system: MDA-MB-468; assay: NCI one-dose screen; settings: Breast MDA-MB-468, 10 µM single dose
Procedure, shortened: as §4

[34] = test system: HOP-62; assay: NCI one-dose screen; settings: NSCLC HOP-62, 10 µM single dose
Procedure, shortened: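 One concentration (10 μM) applied to each line of the full NCI-60 panel; percent growth compared against untreated cells.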

[35] = test system: DU-145; assay: NCI one-dose screen; settings: Prostate DU-145, 10 µM single dose
Procedure, shortened: as §1

[36] = test system: full NCI 60 cell panel; assay: NCI one-dose screen, whole panel statistics; settings: 1.00E-5 Molar; for Mean Growth Percent: mean over panel
Procedure, shortened: as §2

Structure (SMILES) | Growth Percent [1] | Growth Percent [2] | Growth Percent [3] | Growth Percent [4] | Growth Percent [5] | Growth Percent [6] | Growth Percent [7] | Growth Percent [8] | Growth Percent [9] | Growth Percent [10] | Growth Percent [11] | Growth Percent [12] | Growth Percent [13] | Growth Percent [14] | Growth Percent [15] | Growth Percent [16] | Growth Percent [17] | Growth Percent [18] | Growth Percent [19] | Growth Percent [20] | further results
Cc1c(C(=O)NCCC(=O)NO)sc2ncnc(Nc3ccc(F)c(Cl)c3)c12 [Compound 19d, 4–(3-chloro-4-fluorophenylamino)-N-(3-(hydroxyamino)-3-oxopropyl)-5-methylthieno[2,3-d]pyrimidine-6-carboxamide] | 107.2% | 104.3% and 104.35% | 96.0% and 96.07% | 101.3% and 101.35% | 102.7% and 102.77% | 103.5% and 103.52% | 102.0% and 102.06% | 102.5% and 102.53% | 84.8% and 84.81% | 103.1% and 103.12% | 101.8% and 101.82% | 99.4% and 99.43% | 104.7% and 104.72% | 103.8% and 103.84% | 99.7% and 99.74% | 100.4% and 100.44% | 111.5% and 111.54% | 117.7% and 117.77% | 108.1% and 108.11% | 95.1% and 95.18% | Growth Percent [21]: 108.4% and 108.42%; Growth Percent [22]: 108.8% and 108.82%; Growth Percent [23]: 113.9% and 113.96%; Growth Percent [24]: 98.0% and 98.02%; Growth Percent [25]: 96.6% and 96.62%; Growth Percent [26]: 102.2% and 102.27%; Growth Percent [27]: 102.8%; Growth Percent [28]: 101.5% and 101.58%; Growth Percent [29]: 110.0% and 110.01%; Growth Percent [30]: 101.8% and 101.85%; Growth Percent [31]: 106.5%; Growth Percent [32]: 129.2% and 129.24%; Growth Percent [33]: 102.7% and 102.77%; Growth Percent [34]: 104.5% and 104.52%; Growth Percent [35]: 111.2% and 111.26%; Delta (one dose mean graph) [36]: 19.56%; Range (one dose mean graph) [36]: 44.43%; Mean Growth Percent [36]: 104.37%
Cc1c(C(=O)NCCCC(=O)NO)sc2ncnc(Nc3ccccc3)c12 [Compound 20b, N-(4-(hydroxyamino)-4-oxobutyl)-5-methyl-4-(phenylamino)thieno[2,3-d]pyrimidine-6-carboxamide] | 111.2% and 111.26% | 98.8% and 98.87% | 90.6% and 90.64% | 98.7% | 100.3% and 100.34% | 108% | 98.6% and 98.66% | 110.9% and 110.91% | 88.2% and 88.29% | 102.2% and 102.24% | 103.3% and 103.32% | 89.6% and 89.65% | 104.7% and 104.78% | 101.4% and 101.41% | 103.9% and 103.93% | 99.4% and 99.46% | 115.5% and 115.55% | 110.5% and 110.53% | 107.3% and 107.33% | 92.1% and 92.13% | Growth Percent [21]: 100.2% and 100.23%; Growth Percent [22]: 105.4% and 105.47%; Growth Percent [23]: 128.8% and 128.88%; Growth Percent [24]: 96.9% and 96.91%; Growth Percent [25]: 96.9% and 96.93%; Growth Percent [26]: 98.2% and 98.23%; Growth Percent [27]: 104.1% and 104.16%; Growth Percent [28]: 100.2% and 100.23%; Growth Percent [29]: 102.2%; Growth Percent [30]: 97.6% and 97.62%; Growth Percent [31]: 109.4% and 109.49%; Growth Percent [32]: 125.1% and 125.12%; Growth Percent [33]: 98.0% and 98.03%; Growth Percent [34]: 100.8% and 100.81%; Growth Percent [35]: 111% and 111.21%; Delta (one dose mean graph) [36]: 14.62%; Range (one dose mean graph) [36]: 40.59%; Mean Growth Percent [36]: 102.91%
